The numbers were not newly measured in patent US20040191214A1, “Nucleoside vaccine adjuvants” (priority 2001, published 2004), which cites them from elsewhere.

The data set has as its system lymphocyte. The following applies: stated as known; see U.S. Pat. Nos. 6,130,326, 6,063,772, 5,767,097 to Tam.

On to `Cl.N=C(N)c1cn([C@@H]2O[C@H](CO)[C@@H](O)[C@H]2O)c2nc[nH]c(=O)c12` [7-(β-D-ribofuranosyl)pyrrolo[2,3-d]4-pyrimidone-5-carboxamidine*HCl], for which the “stimulation of Type 1 or Type 2 (cytokine) response” value (“stimulation” for short) is “stimulate a Type 2 response”.

Take `NC(=O)c1ncn([C@H]2O[C@@H](CO)[C@H](O)[C@@H]2O)n1` [Levovirin, 1-beta-L-ribofuranosyl-1,2,4-triazole-3-carboxamide]: the “stimulation” value is “stimulate a Type 1 response”.

For the compound `NC(=O)c1ncn([C@@H]2O[C@H](CO)[C@@H](O)[C@H]2O)n1` [Ribavirin, 1-beta-D-ribofuranosyl-1,2,4-triazole-3-carboxamide], the “stimulation” value is recorded as “stimulate a Type 1 response”.

In the case of `N=C(N)c1ncn([C@@H]2O[C@H](CO)[C@@H](O)[C@H]2O)n1` [Viramidine, 1-beta-D-ribofuranosyl-1,2,4-triazole-3-carboxamidine], the “stimulation” value was “stimulate a Type 1 response”.
